{"source": "patent US20240398737A1", "about": "“FUNCTIONALIZED LONG-CHAIN HYDROCARBON MONO- AND DI-CARBOXYLIC ACIDS AND DERIVATIVES THEREOF, AND THEIR USE FOR THE PREVENTION OR TREATMENT OF DISEASE” (Espervita Therapeutics, Inc., priority 2021, published 2024)", "key": {"Human ACC1": {"target": "Human ACC1 (Homo sapiens (Human), UniProt Q13085)", "assay": "ACC1 enzymatic assay (ADP-Glo)", "assay_type": "biochemical", "parameters": "key to Compound IC50 (M) ACC1: *: No detectable inhibition or compound activity", "settings": "recombinant human ACC1 5 nM; 10 concentrations from 300 μM; Runs 1-3", "procedure": "Human ACC1 (Cat #50202 Lot #120830) and ACC2 (Cat #50201 Lot #160217) were obtained from BPS Biosciences, San Diego, CA 92121. Human ACC1 had C-terminal flag and His-tags with a MW of 270 KDa after purification from Baculovirus infected Sf9 cell expression system and came as a solution in 50 mM Tris-HCl, pH 8.0, 500 mM NaCl, 10% glycerol, 1 mM DTT, 100 μg/ml FLAG peptide with 70% purity. The stock concentration was 0.25 mg/ml corresponding to 0.926 μM. Human ACC2 was also purified from Baculovirus infected Sf9 expression system. […] The stock concentration was 0.1 mg/ml corresponding to 0.36 μM. The assay buffer for measuring the activity of ACC contained: 30 mM HEPES (pH 7.4), 2 mM MgCl2, 0.01% Brij35, 2 mM DTT, 1% DMSO (solvent for compound). For ACC1 and ACC2 assays, the following concentrations of substrate and cofactors were used: 12 mM NaHCO3, 10 μM acetyl CoA, 10 μM ATP, and 2 mM K-citrate. The recombinant human enzyme was used at 5 nM for ACC1 and 1 nM for ACC2. In brief, enzyme alone in the above buffer without substrate was used for background. All test materials were dissolved in 100% DMSO using acoustic technology (Echo550). The prepared solution was preincubated for 15 min followed by the addition of 5 μL/well of ADP standard. ATP was then added to start the reaction. The assay contents were spun and briefly shaken followed by incubation at room temperature for 1 h. At the end of completion of assay, 5 μL of ADP-Glo was added to each well to stop the reaction. The contents were mixed, spun and incubated at room temperature for 40 min followed by the addition of 10 μL/well of ADP detection reagent. The contents were spun, mixed and covered with plastic to measure luminescence. […] The light generated, measured in a luminometer, correlates to the amount of ADP generated in the ACC assay, which is indicative of ACC activity.\nThe enzyme concentrations for ACC1 and ACC2 were 5 nM and 1 nM, respectively.\nData represent nM or μM ADP produced, % Activity (relative to no inhibitor controls), and curve fits were performed by GraphPad Prism software. […]"}, "[1]": {"tested_on": "bone marrow derived macrophages (BMDMs)", "assay": "LPS-induced glycolysis in bone marrow derived macrophages (Seahorse)", "assay_type": "cell-based, mouse", "settings": "LPS + Compound I-1 50 μM, 4 hours", "procedure": "(§1) Example 10: Treatment of bone marrow derived macrophages Mϕ (BMDMs) with Compound I-1 suppresses lipopolysaccharide (LPS)-induced glycolysis and inflammation. Macrophage were isolated as follows: femurs and tibia were collected from mice, cleaned of any soft tissues and the ends were cut off from each bone. The tibia and femur were then transferred into 1.5 mL Eppendorf tubes and the marrow was extracted via centrifugation (1900 g×5 min), resuspended in DMEM and strained through a 40 μm strainer into a 50 ml falcon tube. The strainer was rinsed with an additional 40 mL of DMEM, the cell suspension was transferred to a T175 flask, an additional 60 mL of DMEM was added and the cells were cultured at 37° C. for 4 hours. Differentiation was initiated by adding 20 mL of L929 fibroblast conditioned media and 12 mL was plated on 100 mm dishes. The cells were then left for 7 days to differentiate into macrophages. […] Changes in gene expression were calculated using 2-delta cT method. Macrophage glycolytic rates were assessed using a Seahorse Bioanalyzer (XFe96, Agilent Scientific Instruments). […] The following day cells were serum-starved for 2 hours then treated with LPS (100 ng/mL) and Compound I-1 (50 μM) and glycolytic rate was analyzed (Agilent Seahorse XFp Cell Energy Phenotype Test Kit, Cat #103275-100)."}, "[2]": {"tested_on": "bone marrow derived macrophages (BMDMs)", "assay": "LPS-induced Il-6 and Il-1b mRNA in BMDMs (RT-qPCR)", "assay_type": "cell-based, mouse", "settings": "LPS 10 ng/mL + Compound I-1 50 μM, 4 hours", "procedure": "as §1"}}}
{"smiles": "CC(C)(CCCCc1ccc(CCCCC(C)(C)C(=O)O)cc1)C(=O)O", "note": "[Compound I-1, 6-[4-(5-carboxy-5-methylhexyl)-phenyl]-2,2-dimethylhexanoic acid]", "values": [{"measurement": "Compound IC50 (M) ACC1", "setting": "Human ACC1", "value": "*"}, {"measurement": "LPS-induced glycolysis (glycolytic rate, Seahorse)", "setting": "[1]", "value": "suppression"}, {"measurement": "Il-1b mRNA (marker of inflammation)", "setting": "[2]", "value": "suppression"}, {"measurement": "Il-6 mRNA (marker of inflammation)", "setting": "[2]", "value": "suppression"}]}
